PMC6349869, “The palladacycle complex AJ-5 induces apoptotic cell death while reducing autophagic flux in rhabdomyosarcoma cells” (Cell Death Discovery, 2019)

Columns and labels:
Assay type in all cases: cell-based, human
RD cells [1] = assay: MTT cell viability assay, RD; details: RD (eRMS), 48 h
Experimental: RH30 human aRMS cells (kindly provided by Associate Professor Judith Davie, Southern Illinois University), AX-OH-1 human aRMS and FL-OH-1 human eRMS cells (kindly provided by Professor Stefan Bath, University of Cape Town) were cultured in Roswell Park Memorial Institute Medium (RPMI)-1640 (Sigma Aldrich, Missouri, USA). […] Cell morphology was monitored using an Olympus CKX41 inverted microscope (MSAC Ltd, UK) and imaged with an EVOS™ XL AMEX1000 Core Imaging System (Thermo Fisher Scientific, Massachusetts, USA).
Cells were seeded in 96-well plates and treated the next day with a range of AJ-5 concentrations (0.1–1.0 μM) or vehicle ([…]) for 48 h. Cell viability was measured using the 3-(4,5-dimethylthiazol-2-yl)-2,5-diphenyl-trazolium bromide (MTT) assay (11465007001; Sigma Aldrich) according to the manufacturer’s instructions. Mean cell viability was calculated as a percentage of the mean vehicle control. At least three independent experiments in quadruplicate were performed from which the half maximal inhibitory concentration (IC50) was determined using GraphPad Prism version 6.0 (GraphPad Software, California, USA). The selectivity index (SI) was determined by dividing the IC50 of a normal cell line by the IC50 of a cancer cell line.

[2] = system: caspase-3/7, caspase-8, caspase-9, PARP in RH30 and RD cells; assay: Caspase-Glo assays and western blots of apoptosis markers
Experimental: Cells were lysed at 4 °C in whole-cell lysis buffer (0.125 M Tris-HCl pH 6.8, 4% SDS, 0.2% glycerol, 0.1% β-mercaptoethanol and a pinch of bromophenol blue) and boiled for 10 min. Proteins were resolved by SDS-PAGE (6–15% gels) and transferred to Hybond ECL membranes (Amersham, UK). The membranes were incubated with primary antibodies: rabbit polyclonal antibodies to phospho-histone H2A.X (Ser139) (#2577), phospho-chk2 (Thr68) (#221), phospho-p38 MAPK (Thr180/Tyr182) (#9211), cleaved caspase-3 (Asp175) (#9661), PARP (#9542), caspase-9 (#9502), LC3B (#2775), p38 MAPK (#9212), rabbit monoclonal antibody to cleaved caspase-7 (Asp198) (D6H1) (#8438), mouse monoclonal antibodies to phospho-ATM (Ser1981) (D6H9) (#5883), Cyclin B1 (V152) (#4135), Caspase-8 (1C12) (#9746), SQSTM1/p62 (D5L7G) (#88588) from Cell Signaling Technology (Massachusetts, USA); mouse monoclonal antibody to p53 (DO-1) (sc-126), rabbit polyclonal antibodies to p21 (C-19) (sc-397), cyclin A (H-432) (sc-751), cyclin B1 (H-433)(sc-752), PARP-1 (H-250) (sc-7150) from Santa Cruz Biotechnology (Texas, USA); rabbit polyclonal antibody to p38 MAP kinase (M0800) from Sigma Aldrich. After primary antibody incubation, membranes were incubated with goat anti-rabbit or goat anti-mouse HRP-conjugated secondary antibodies (Bio-Rad Laboratories, California, USA). Antibody reactive proteins were visualized by enhanced chemiluminescence using SuperSignal West Pico Chemiluminescent Substrate Kit (Thermo Fisher Scientific) or WesternBright ECL HRP Substrate Kit (Advansta, California, USA). Densitometry readings were obtained using ImageJ v1.50i[58] and protein expression levels were represented as a ratio of protein of interest/p38 loading control normalized to the vehicletreated control sample where appropriate. All blots are representative of at least two independent repeats.
Cells were seeded and treated for 24 h with IC50 AJ-5, vehicle or 0.5 µM (IC50) doxorubicin which was included and as a positive control. […]

RD cells [3] = assay: Single-cell autophagosome flux analyses; details: IC50 48 h
Experimental: The autophagosome flux was calculated from the rate of autophagosome accumulation as previously described. Briefly, this was determined after the complete inhibition of fusion between autophagosomes and lysosomes using 400 nM bafilomycin A1 (B0025; LKT Laboratories Inc., Minnesota, USA).
Cells were transfected with a GFP-LC3 construct using Lipofectamine 3000 (L3000001; Thermo Fisher Scientific) according to the manufacturer’s instructions and maintained for 2 days in order to achieve high levels of GFP-LC3 expression.
Autophagosome, autolysosome and lysosome pool size was assessed by supplementing the culture media with 25 nM LysoTracker Red (L7528; Thermo Fisher Scientific) 2 h prior to image acquisition. An LSM 780 confocal with ELYRA S.1 Superresolution platform (Carl Zeiss) was used for image acquisition. The eight-chamber dish was placed in a heated chamber maintained at 5% CO2 that encased the microscope objective. An LCI Plan-Apochromat ×63/1.4 oil DIC M27 objective was used and samples were excited with an Argon multiline laser 25 mW at 488 and 514 nm with appropriate beam splitters and GaAsP detector 32+2 PMT. Multiple z layers were acquired with […] step width. Laser power and electron gain were set to achieve an optimal signal to noise ratio without causing photo-toxicity. […]

CC(C)c1cccc(C(C)C)c1[N+]1=Cc2cccc[c]2[Pd-2]1([Cl])[P+](CC[P+](c1ccccc1)(c1ccccc1)[Pd-2]1([Cl])[c]2ccccc2C=[N+]1c1c(C(C)C)cccc1C(C)C)(c1ccccc1)c1ccccc1 (centres unmarked) [AJ-5]
IC50 (RD cells [1]): ≤ 200 nM | Activation of caspases-8 and -9 compared with IC50 doxorubicin ([2]; RD cells, 24 h, IC50 AJ-5 vs 0.5 µM doxorubicin): more robustly activated | Active (cleaved) caspases-3/7 and cleaved PARP ([2]; RH30 and RD): increased levels | Cleaved caspase-8 and caspase-9 ([2]; RH30 and RD, western blotting and Caspase-Glo): increased levels and activity | Autolysosome pool size and autophagosome flux J (RD cells [3]): significantly decreased
